Measured values from patent US20240091254A1, “WNT AGONISTS FOR PREVENTION OF CANCER” (ACADEMISH MEDISCH CENTRUM, priority 2021, published 2024).

Experiment: Lithium levels in mouse serum after oral LiCl
Format: in vivo
Details: oral LiCl 300 mg/liter in tap water, Lgr5-CreErt2;Rosa26mTmG mice
Description: Lgr5-EGFP-IRES-Cre^ERT2 Villin-Cre^ERT2, Rosa26mTmG, Apc^fl/fl and Kras^G12D mice have been described earlier^30-34. All in vivo experiments were approved by the animal experimentation committee at the Amsterdam UMC—location Academic Medical Center in Amsterdam under nationally registered licence number AVD1180020172125 and performed according to national guidelines. Mice were housed in a 12 hour light/12 hour dark cycle, with temperatures between 20-24° C. and 40-70% humidity. For short term assays, both male and female mice were used. For long term assays, only females were used to prevent the risk of preliminary dropout due to fighting male mice. All mice were between 6-12 weeks old at the start of the experiments. For all mouse experiments, sufficient sample sizes were determined based on previous studies with a similar study design^3,35. Experimental animals were randomly assigned to the control or lithium treated groups, clone sizes and adenoma counts were scored blindly. […] Mouse discomfort during tumour formation assays was closely monitored, and endpoints were determined as <15% weight loss within 2 days or a mouse grimace scale (MGS) score<3. […] After 60 days, intestines were removed and polyps were counted macroscopically.

[Cl-].[Li+] [LiCl, lithium chloride]
Serum concentrations (Li+), tolerability: well-tolerated serum concentrations
